Values quoted from earlier work as cited in patent US12479917B2, “Methods of treating NSCLC comprising administering platinum doublet chemotherapy followed by an anti-PD-1 antibody and an anti-CTLA-4 antibody” (priority 2018, dated 2025).

How the values were obtained:
advanced NSCLC = conditions: second line (2 L)
[1] = monotherapy, every two weeks; MTD not reached

Compound	efficacy outcomes compared with docetaxel (advanced NSCLC)	side effects compared with docetaxel (advanced NSCLC)	maximum tolerated dose (MTD) [1]
Nc1nc2[nH]cc(CCc3ccc(C(=O)N[C@@H](CCC(=O)O)C(=O)O)cc3)c2c(=O)[nH]1 [Pemetrexed]	clinically equivalent efficacy outcomes	significantly fewer side effects	–
nivolumab	–	–	> 10 mg/kg
